Measured values from patent US20130266636A1, “METHODS FOR BLOCKING CELL PROLIFERATION AND TREATING DISEASES AND CONDITIONS RESPONSIVE TO CELL GROWTH INHIBITION” (THE REGENTS OF THE UNIVERSITY OF CALIFORNIA, priority 2010, published 2013).
“Also recorded” adds a separate entry of the source.

What was measured:
[1] = system: A549/ATCC; assay: NCI-60 panel growth inhibition; format: cell-based; details: Homo sapiens, NSC Lung Cancer, mutated RAS Yes, mutated BRAF No
From the text: (§1) Table 1 summarizes KG5's effect in 60 NCI cancer cell lines: the NCI-60 panel showing the half maximal growth inhibitory concentration of KG5 and the RAS and BRAF status in 60 human cancer cell lines.

[2] = system: HL-60(TB); assay: NCI-60 panel growth inhibition; format: cell-based; details: Homo sapiens, Leukemia, mutated RAS Yes, mutated BRAF No
From the text: as §1

[3] = system: HOP-62; assay: NCI-60 panel growth inhibition; format: cell-based; details: Homo sapiens, NSC Lung Cancer, mutated RAS Yes, mutated BRAF No
From the text: as §1

[4] = system: IGROV1; assay: NCI-60 panel growth inhibition; format: cell-based; details: Homo sapiens, IGROV-1; Ovarian Cancer; mutated RAS No; mutated BRAF No
From the text: as §1

[5] = system: MALME-3M; assay: NCI-60 panel growth inhibition; format: cell-based; details: Homo sapiens, Melanoma, mutated RAS No, mutated BRAF Yes
From the text: as §1

[6] = system: NCI-H322M; assay: NCI-60 panel growth inhibition; format: cell-based; details: Homo sapiens, NSC Lung Cancer, mutated RAS No, mutated BRAF No
From the text: as §1

[7] = system: SF-295; assay: NCI-60 panel growth inhibition; format: cell-based; details: Homo sapiens, CNS Cancer, mutated RAS No, mutated BRAF No
From the text: as §1

[8] = system: SN12C; assay: NCI-60 panel growth inhibition; format: cell-based; details: Homo sapiens, Renal Cancer, mutated RAS No, mutated BRAF No
From the text: as §1

[9] = system: NCI-60 panel; assay: NCI-60 panel growth inhibition, overall; format: cell-based, human
From the text: FIG. 8 illustrates […] panel showing the half maximal growth inhibitory concentration of KG5 in […] human cancer cell lines.
as §1

[10] = target: T1, phospho-S338 c-RAF (CRAF) (Homo sapiens, UniProt P04049); assay: Phospho-S338 CRAF staining in orthotopic MDA-MB-231 breast cancer tissues; format: in vivo, mice; details: systemic KG5 50 mg/kg i.p. bid, 3 days
T1 construct: immunofluorescent staining of phospho-S338 c-RAF (CRAF) in orthotopic breast cancer tissues untreated or systemically treated with KG5; from tissue; host or cells: orthotopic MDA-MB-231 tumours in nude mice
T1 sequence (P04049 whole entry): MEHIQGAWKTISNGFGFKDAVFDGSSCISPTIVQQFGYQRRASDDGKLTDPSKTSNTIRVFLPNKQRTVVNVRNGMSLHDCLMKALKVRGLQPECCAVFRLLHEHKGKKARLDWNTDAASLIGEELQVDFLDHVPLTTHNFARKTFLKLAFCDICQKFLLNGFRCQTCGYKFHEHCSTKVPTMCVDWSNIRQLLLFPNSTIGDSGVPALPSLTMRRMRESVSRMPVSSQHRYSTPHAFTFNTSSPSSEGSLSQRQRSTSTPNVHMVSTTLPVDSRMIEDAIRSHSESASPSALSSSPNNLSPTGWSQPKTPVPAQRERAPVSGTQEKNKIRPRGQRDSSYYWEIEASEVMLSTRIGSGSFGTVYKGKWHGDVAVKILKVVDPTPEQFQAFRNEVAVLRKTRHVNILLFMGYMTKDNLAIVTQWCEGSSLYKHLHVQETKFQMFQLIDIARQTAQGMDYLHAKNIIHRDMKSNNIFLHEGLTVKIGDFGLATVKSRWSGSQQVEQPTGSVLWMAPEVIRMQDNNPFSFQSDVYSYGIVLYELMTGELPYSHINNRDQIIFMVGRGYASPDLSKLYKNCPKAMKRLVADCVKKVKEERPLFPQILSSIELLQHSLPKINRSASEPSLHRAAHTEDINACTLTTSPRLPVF
Protocol: FIG. 4 illustrates the effect of KG5 on orthotopic MDA-MB-231 breast cancer cells after three days, as further discussed in Example 1, below.
FIG. 4 illustrates an immunofluorescent staining of phospho-S338 c-RAF (CRAF) in orthotopic breast cancer tissues untreated or systemically treated with KG5 for 3 days.
Tumors were generated by injection of MDA-MB-231 human breast carcinoma cells (2×10^6 tumor cells in 50 μl of sterile PBS) into the mammary fatpad of 6-8 week old female nude mice. Tumors were established for 2 weeks before beginning dosing. Mice were dosed with vehicle (10% HS-15) or 50 mg/kg KG5 (i.p. bid) for 3 days prior to harvest. All research was conducted under protocols approved by the UCSD animal subjects committee and in accordance with the guidelines set forth in the NIH Guide for the Care and Use of Laboratory Animals.
Immunostaining was performed according to the manufacturer's recommendations (Vector Labs), on […] sections of paraffin-embedded tumors from the orthotopic xenograft breast and brain cancer mouse models, the subcutaneous tumor mouse model or from human patients diagnosed with breast or brain cancer (as approved by the Institutional Review Board at University of California, San Diego). Antigen retrieval was performed in citrate buffer pH 6.0 at 95° C. for 20 min. […]

[11] = system: human lung (A549) carcinoma cell line; assay: Cell viability assay in A549 cells; format: cell-based
[12] = target: CRAF (Homo sapiens, UniProt P04049); assay: Phospho-S338 CRAF immunoblot in XPA-1 cells; format: cell-based; set-up: total CRAF and total MEK of lysates from XPA-1 cells treated with PD0325901, Sorafenib, L-779450, PLX4720, KG5 or KG1; endogenous in cells; host or cells: XPA-1
Sequence of CRAF (P04049 whole entry): as above
Protocol: FIGS. 6 and 7 illustrate immunoblot analysis of CRAF immunoprecipitated from XPA-1 cells treated with KG5 and KG38.
FIG. 13 illustrates immunoblot analysis of phospho-5338 CRAF, phospho-MEK, total CRAF and total MEK of lysates from XPA-1 cells treated with PD0325901, Sorafenib, L-779450, PLX4720, KG5 or KG1.
Immunoprecipitation and Immunoblot Analysis Cells were lysed in either NP40 lysis buffer (150 mM NaCl, 50 mM Tris Base pH 7.4, 1% NP40) or RIPA buffer (50 mM Tris pH 7.4, 100 mM NaCl, 0.1% SDS) supplemented with complete protease inhibitor mixture (Roche), 50 mM NaF and 1 mM Na3VO4 and centrifuged at 13,000×g for 10 min at 4° C. Protein concentration was determined by BCA assay. […] of protein were immunoprecipitated with […] of anti-Flag (Sigma), anti-CRAF (BD Pharmingen), anti-Plk1 (Abcam), anti-γ-Tubulin (sigma) or anti-cenpF (Santa Cruz) antibodies overnight at 4° C. followed by capture with 25 μl of protein A/G (Pierce). Beads were washed five times, eluted in boiling Laemmli buffer, resolved on 10% SDS-PAGE and immunoblotting was performed with anti-Plk1 antibody (Abcam), anti-CRAF antibody (BD Pharmingen), anti-Aurora A (Abcam), anti-phospho-S338 CRAF (Cell Signaling), anti-phospho-T210 Plk1 or anti-phospho-T288 Aurora A (Cell signaling) diluted 1:1000. For immunoblot analysis, […] of protein was boiled in […]

CSc1nc(N)cc(Oc2ccc(-c3nnc(Nc4cccc(C(F)(F)F)c4)[nH]3)cc2)n1 [KG5]
GI50 [1]: 501 nM
GI50 [2]: 407 nM
GI50 [3]: 589 nM
GI50 [4]: 447 nM
GI50 [5]: 316 nM
GI50 [6]: 525 nM
GI50 [7]: 427 nM
GI50 [8]: 912 nM
growth inhibitory activity against the NCI-60 panel [9]: inhibits the growth of several human cancer cell lines; also recorded: broad growth inhibitory activity
phospho-S338 CRAF in orthotopic breast cancer tissues [10]: qualitative decrease in phospho-5338 RAF
phospho-S338 CRAF in orthotopic breast cancer tissues ([10]; 50 mg/kg): inhibits serine 338 phosphorylation of CRAF
cell viability ([11]; A549): decrease cell viability
EC50 ([11]; A549 lung cancer cells): approach picomolar (pM) EC50s
serine 338 phosphorylation on CRAF [12]: prevent; also recorded: inhibits phosphorylation of CRAF on serine 338
